Among the data in patent US7452997B2 (priority 2004, dated 2008) are IC50 values, retold here.

pIC50: −log10 of the molar value. Like-named read-outs stand apart in the source and are kept apart here.

For test [1], the target named is human CB2 receptor (Homo sapiens, UniProt P34972). Briefly: Binding assay, cannabinoid CB2 receptor ([3H]-CP-55,940 displacement). Particulars: SK-N-MC cell membranes, radioligand CP-55,940 0.2 nM. The protocol:
Binding Assay for CB1 or CB2 Agonists or Inverse Agonists
The human CB1 and CB2 receptors were stably expressed in SK-N-MC cells transfected with pcDNA3 CB-1 (human) or pcDNA3 CB-2 (human). The cells were grown in T-180 cell culture flasks under standard cell culture conditions at 37° C. in a 5% CO2 atmosphere. The cells were harvested by trysinization and homogenized in a homogenization buffer (10 mM Tris, 0.2 mM MgCl2, 5 mM KCl, with protease inhibitors aprotinin, leupeptin, pepstatin A and bacitracin) and centrifuged (2000 g). The supernatant was then centrifuged in 2M sucrose (31,300 g) to produce a semi-purified membrane pellet. The pellet was resuspended in homogenization and store at −80° C.
On the day of the assay, the pellet was thawed on ice and diluted in assay buffer (50 mM Tris-HCl, 5 mM MgCl2, 2.5 mM EDTA, 0.5 mg/mL fatty acid free bovine serum albumin, pH 7.5). The diluted membrane was added with buffer, test compound or standard and the radioligand [H]^3+-CP-55,940_(0.2 nM) to the wells of a 96-well polypropylene plate. Non-specific binding was measured in wells containing 10 uM WIN 55,212. The plate was covered and incubated for 90 minutes at 30° C. The contents were then aspirated onto a Packard UNIFILTER GF/C filter bottom plate prewet with 0.5% polyethyleneimine. The wells of the polypropylene plate were rinsed and aspirated seven times with a 0.9% saline-0.5% TWEEN 20 solution. The UNIFILTER plate was dried, a scintillation cocktail was added to each well and the counts representing binding were quantitated in a TOPCOUNT scintillation counter.
The IC50 binding values for compounds tested were calculated by linear regression and were obtained from studies in which varying compound concentrations were used.

Test [2] concerns the target T1, human CB1 receptor (Homo sapiens, UniProt P21554).
T1 construct: expressed in transfected cells; host or cells: SK-N-MC cells, stably transfected with pcDNA3 CB-1 (human); semi-purified membrane pellet
Kind of test: biochemical. It counts as binding. A digest of the protocol:
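Membranes from SK-N-MC cells stably expressing human CB1, incubated 90 minutes at 30° C in Tris-HCl buffer with MgCl2, EDTA and fatty acid free BSA, pH 7.5. Bound counts collected by filtration and scintillation counting; IC50 from linear regression over varying compound concentrations.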

Setting [3] is: Cannabinoid CB2 Receptor Binding IC50, human CB2 receptor.

human CB2 receptor, sequence (P34972 whole entry): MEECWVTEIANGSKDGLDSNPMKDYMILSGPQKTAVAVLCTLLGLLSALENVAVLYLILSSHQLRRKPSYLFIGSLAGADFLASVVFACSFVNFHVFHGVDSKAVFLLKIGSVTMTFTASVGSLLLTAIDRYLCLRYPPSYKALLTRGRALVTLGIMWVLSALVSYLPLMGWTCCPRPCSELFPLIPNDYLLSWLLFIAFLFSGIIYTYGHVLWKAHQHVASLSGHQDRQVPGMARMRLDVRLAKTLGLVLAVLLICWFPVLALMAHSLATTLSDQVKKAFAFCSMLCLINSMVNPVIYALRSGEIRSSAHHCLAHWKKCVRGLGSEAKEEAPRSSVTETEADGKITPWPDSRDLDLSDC
T1 sequence (P21554 whole entry): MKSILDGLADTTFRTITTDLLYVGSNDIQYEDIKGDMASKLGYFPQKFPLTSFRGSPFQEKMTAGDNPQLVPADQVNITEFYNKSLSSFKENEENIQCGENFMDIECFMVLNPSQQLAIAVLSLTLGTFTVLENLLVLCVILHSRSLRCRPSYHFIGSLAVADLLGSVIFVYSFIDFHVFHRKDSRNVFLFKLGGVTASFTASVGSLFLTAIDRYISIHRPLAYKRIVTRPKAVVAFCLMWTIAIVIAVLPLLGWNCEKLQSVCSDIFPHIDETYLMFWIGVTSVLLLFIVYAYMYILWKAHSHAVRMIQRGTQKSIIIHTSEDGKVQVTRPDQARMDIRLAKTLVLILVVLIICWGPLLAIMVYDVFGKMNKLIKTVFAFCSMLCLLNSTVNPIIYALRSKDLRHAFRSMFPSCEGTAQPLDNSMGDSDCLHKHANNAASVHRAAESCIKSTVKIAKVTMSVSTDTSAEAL

As for `CCOC(=O)C1CCc2c(C(=O)NC(C)C34CC5CC(CC(C5)C3)C4)nn(C3CCCCC3)c2C1` (centres unmarked) [compound 69], the pIC50 in test [1] (setting [3]) was 8.57; in test [2], 6.66.

As for `CCOC(=O)C1CCCc2c1c(C(=O)NC1C3CC4CC(C3)CC1C4)nn2C1CCCCC1` (centres unmarked) [compound 71], the values for the negative-log IC50 (pIC50) in test [1] (setting [3]) and in test [2] were 6.30 and 6.28, respectively.

In the case of `CCOC(=O)C1CCCc2c1c(C(=O)NC(C)C13CC4CC(CC(C4)C1)C3)nn2C1CCCCC1` (centres unmarked) [compound 72], the pIC50 in test [1] (setting [3]) was 5.39; in test [2], 5.08.

On to `CC12CCC(C1)C(C)(C)C2NC(=O)c1nn(C2CCCCCC2)c2c1CCCC2` (centres unmarked) [compound 74], for which the figures for the pIC50 in test [1] (setting [3]) and in test [2] were 8.85 and 7.82, respectively.

Consider `COC(=O)C(Cc1ccc(O)cc1)NC(=O)c1nn(C2CCCCC2)c2c1CCCC2` (centres unmarked) [compound 77], for which the pIC50 in test [1] (setting [3]) is 8.52; in test [2], 7.28.

For the compound `O=C(NC(Cc1ccc(OCc2ccccc2)cc1)C(=O)O)c1nn(C2CCCCC2)c2c1CCCC2` (centres unmarked) [compound 78], the pIC50 in test [1] (setting [3]) is 5.92; in test [2], 5.34.

With `O=C(NC1C2CC3CC(C2)CC1C3)c1nn(C2CCCCC2)c2c1CC(C(=O)OCc1ccccc1)CC2` (centres unmarked) [compound 79], the negative-log IC50 (pIC50) in test [1] (setting [3]) is 8.00; in test [2] it was 7.52.

Turning to `COC(=O)C(Cc1ccc(OCc2ccccc2)cc1)NC(=O)c1nn(Cc2ccccc2)c2c1CCCC2` (centres unmarked) [compound 80], the pIC50 is 6.77 in test [1] (setting [3]) and 6.64 in test [2].

`COC(=O)C(Cc1ccc(OCc2ccccc2)cc1)NC(=O)c1nn(C2CCCCC2)c2c1CCCC2` (centres unmarked) [compound 81]: the pIC50 in test [1] (setting [3]) was 7.70; in test [2] it was 6.31.

Turning to `COC(=O)C(Cc1ccc(O)c(O)c1)NC(=O)c1nn(Cc2ccccc2)c2c1CCCC2` (centres unmarked) [compound 82], the figures for the pIC50 in test [1] (setting [3]) and in test [2] were 6.70 and 6.15, respectively.

Regarding `COC(=O)C(Cc1c[nH]c2ccccc12)NC(=O)c1nn(Cc2ccccc2)c2c1CCCC2` (centres unmarked) [compound 83], the figures for the pIC50 in test [1] (setting [3]) and in test [2] were 7.70 and 7.42, respectively.

Take `CC(C)(C)OC(=O)NC1CCc2c(c(C(=O)NC3C4CC5CC(C4)CC3C5)nn2C2CCCCC2)C1` (centres unmarked) [compound 85]: the pIC50 in test [1] (setting [3]) was 7.09; in test [2] it was 6.22.

As to `COC(=O)NC1CCc2c(c(C(=O)NC3C4CC5CC(C4)CC3C5)nn2C2CCCCC2)C1` (centres unmarked) [compound 88], the pIC50 is 7.06 in test [1] (setting [3]) and 5.62 in test [2].

For the compound `O=C(NC1C2CC3CC(C2)CC1C3)c1nn(C2CCCCC2)c2c1CC(NC(=O)N1CCOCC1)CC2` (centres unmarked) [compound 90], the pIC50 was 5.95 in test [1] (setting [3]) and 5.74 in test [2].

`CC(NC(=O)c1nn(C2CCCCC2)c2c1CC(=O)CC2)C12CC3CC(CC(C3)C1)C2` (centres unmarked) [compound 97]: the negative-log IC50 (pIC50) is 7.52 in test [1] (setting [3]) and 5.01 in test [2].

On to `CC(C)(C)C1CCc2c(c(C(=O)NC3C4(C)CCC(C4)C3(C)C)nn2C2CCCCC2)C1` (centres unmarked) [compound 99], for which the pIC50 in test [1] (setting [3]) is 6.60; in test [2] it was 6.02.

For the compound `CS(=O)(=O)NC1CCc2c(c(C(=O)NC3C4CC5CC(C4)CC3C5)nn2C2CCCCC2)C1` (centres unmarked) [compound 104], the pIC50 in test [1] (setting [3]) is 6.70; in test [2], 4.77.

In the case of `CCOC[C@H]1C2CCC(C2)[C@H]1NC(=O)c1nn(C2CCCCC2)c2c1CCCC2` (some centres unmarked) [compound 107], the pIC50 in test [1] (setting [3]) was 5.85; in test [2] it was 6.04.

Regarding `CCOC(=O)C1CC=CCC1NC(=O)c1nn(Cc2ccccc2)c2c1CCCC2` (centres unmarked) [compound 119], the pIC50 in test [1] (setting [3]) was 8.00; in test [2], 8.22.

As for `CCOC(=O)C1CC=CCC1NC(=O)c1nn(C2CCCCC2)c2c1CCCC2OC` (centres unmarked) [compound 120], the results for the pIC50 in test [1] (setting [3]) and in test [2] were 6.06 and 5.61, respectively.

Take `CCOC(=O)[C@H]1C2CCC(C2)[C@H]1NC(=O)c1nn(CC2CCCCC2)c2c1CCCC2` (some centres unmarked) [compound 124]: the values for the negative logarithm of the IC50 (pIC50) in test [1] (setting [3]) and in test [2] were 7.80 and 8.15, respectively.

On to `Cc1ccc(Cn2nc(C(=O)NC3C4(C)CCC(C4)C3(C)C)c3c2CCCC3)cc1` (centres unmarked) [compound 125], for which the pIC50 is 8.66 in test [1] (setting [3]) and 7.59 in test [2].

`CCOC(=O)C1C2CCC(C2)C1NC(=O)c1nn(Cc2ccc(C)cc2)c2c1CCCC2` (centres unmarked) [compound 126]: the figures for the pIC50 in test [1] (setting [3]) and in test [2] were 6.23 and 6.22, respectively.

For the compound `O=C(NC1CCCCCCC1)c1nn(Cc2ccccc2)c2c1CCCC2` [compound 127], the pIC50 in test [1] (setting [3]) is 8.41; in test [2] it was 8.00.

Regarding `CC12CCC(C1)C(C)(C)C2NC(=O)c1nn(-c2ccc(Cl)cc2Cl)c2c1CCCC2` (centres unmarked) [compound 129], the pIC50 in test [1] (setting [3]) is 8.77; in test [2], 8.24.

On to `CCOC(=O)[C@H]1C2CCC(C2)[C@H]1NC(=O)c1nn(-c2ccc(Cl)cc2Cl)c2c1CCCC2` (some centres unmarked) [compound 130], for which the negative logarithm of the IC50 (pIC50) in test [1] (setting [3]) was 8.30; in test [2] it was 6.40.

For `O=C(NC1C2CC3CC(C2)CC1C3)c1nn(-c2ccc(Cl)cc2Cl)c2c1CCCC2` (centres unmarked) [compound 131], the pIC50 in test [1] (setting [3]) is 8.00; in test [2] it was 7.52.

Turning to `CC(NC(=O)c1nn(C2CCCCC2)c2c1CC(C(=O)O)CC2)C12CC3CC(CC(C3)C1)C2` (centres unmarked) [compound 133], the pIC50 in test [1] (setting [3]) was 5.87; in test [2], 4.92.

With `O=C(NCC12CC3CC(CC(C3)C1)C2)c1nn(Cc2ccccc2)c2c1CCCC2` [compound 135], the pIC50 in test [1] (setting [3]) was 7.70; in test [2], 6.17.

For `O=C(NC1C2CC3CC(C2)CC1C3)c1nn(Cc2ccccc2)c2c1CCCC2` (centres unmarked) [compound 136], the figures for the pIC50 in test [1] (setting [3]) and in test [2] were 9.30 and 9.10, respectively.

On to `CCOC(=O)C1CCc2c(c(C(=O)NC3C4CCC(C4)C3C(=O)OCC)nn2C2CCCCC2)C1` (centres unmarked) [compound 137], for which the pIC50 was 5.81 in test [1] (setting [3]) and 5.40 in test [2].

For `O=C(NC12CC3CC(CC(C3)C1)C2)c1nn(-c2ccc(Cl)cc2Cl)c2c1CCCC2` [compound 139], the pIC50 in test [1] (setting [3]) was 6.52; in test [2], 6.80.

Consider `O=C(NC12CC3CC(CC(C3)C1)C2)c1c2c(nn1-c1ccc(Cl)cc1Cl)CCCC2` [compound 140], for which the pIC50 was 5.47 in test [1] (setting [3]) and 6.05 in test [2].

On to `O=C(NCC12CC3CC(CC(C3)C1)C2)c1nn(-c2ccc(Cl)cc2Cl)c2c1CCCC2` [compound 141], for which the pIC50 in test [1] (setting [3]) is 6.85; in test [2] it was 6.52.

With `O=C(NCC12CC3CC(CC(C3)C1)C2)c1c2c(nn1-c1ccc(Cl)cc1Cl)CCCC2` [compound 142], the figures for the pIC50 in test [1] (setting [3]) and in test [2] were 6.40 and 6.22, respectively.

On to `O=C(NCC12CC3CC(CC(C3)C1)C2)c1nn(-c2ccc(F)cc2)c2c1CCCC2c1ccccc1` (centres unmarked) [compound 145], for which the values for the pIC50 in test [1] (setting [3]) and in test [2] were 5.96 and 6.02, respectively.

For `CCOC(=O)C1CCc2c(c(C(=O)NC(C)C34CC5CC(CC(C5)C3)C4)nn2Cc2ccccc2)C1` (centres unmarked) [compound 148], the pIC50 in test [1] (setting [3]) is 7.52; in test [2], 7.89.

With `O=C(NC12CC3CC(CC(C3)C1)C2)c1nn(-c2ccc(F)cc2)c2c1CCCC2CCc1ccccc1` (centres unmarked) [compound 150], the negative-log IC50 (pIC50) in test [1] (setting [3]) was 7.40; in test [2] it was 6.89.

On to `O=C(NCC12CC3CC(CC(C3)C1)C2)c1nn(-c2ccc(F)cc2)c2c1CCCC2CCc1ccccc1` (centres unmarked) [compound 152], for which the pIC50 in test [1] (setting [3]) is 6.70; in test [2], 6.47.

Consider `CC(NC(=O)c1nn(-c2ccc(F)cc2)c2c1CCCC2CCc1ccccc1)C12CC3CC(CC(C3)C1)C2` (centres unmarked) [compound 153], for which the pIC50 is 7.22 in test [1] (setting [3]) and 5.86 in test [2].

Take `CCOC(=O)C1CCCc2c1c(C(=O)NC1C3CC4CC(C3)CC1C4)nn2Cc1ccccc1` (centres unmarked) [compound 158]: the pIC50 was 8.05 in test [1] (setting [3]) and 7.89 in test [2].

As to `CCOC(=O)C1CCCc2c1c(C(=O)NCC13CC4CC(CC(C4)C1)C3)nn2Cc1ccccc1` (centres unmarked) [compound 159], the pIC50 in test [1] (setting [3]) is 6.89; in test [2], 6.13.

With `COC1CCCc2c(C(=O)NC(C)C34CC5CC(CC(C5)C3)C4)nn(C3CCCCC3)c21` (centres unmarked) [compound 161], the pIC50 in test [1] (setting [3]) is 6.11; in test [2] it was 5.28.

In the case of `COC1CCCc2c(C(=O)NC3C4CC5CC(C4)CC3C5)nn(C3CCCCC3)c21` (centres unmarked) [compound 162], the pIC50 in test [1] (human CB2 receptor, read-out: Cannabinoid CB2 Receptor Binding IC50) was 6.96; in test [2] (human CB1 receptor, SK-N-MC cell membranes, radioligand CP-55,940 0.2 nM, read-out: Cannabinoid CB1 Receptor Binding IC50), 6.20.

`CC(NC(=O)c1nn(C2CCCCC2)c2c1CCCC2O)C12CC3CC(CC(C3)C1)C2` (centres unmarked) [compound 163]: the negative logarithm of the IC50 (pIC50) is 6.68 in test [1] (setting [3]) and 5.32 in test [2].

As to `CCOC(=O)N1CCC(NC(=O)c2nn(Cc3ccccc3)c3c2CCCC3)CC1` [compound 171], the pIC50 in test [1] (setting [3]) was 6.52; in test [2] it was 6.19.

In general, pIC50 refers to the negative decadic logarithm of the IC50, by convention in mol/L.
